Source: patent publication EP4141110A1 (priority 2020, dated 2021)
Several values for one entry are separate records, joined by “and”; a condition that tells them apart may be missing. Identical values can stand only once.

Columns and labels:
[1] = tested on: mice; details: mouse, in vivo
[2] = tested on: PC3 line; type: cell-based
[3] = tested on: cell cultures

SMILES	Therapeutic ratio × 10^-7 [1]	% of PC3 death in the mixture with iRGD + 6APA ligand [2]	daggl [3]	DCL [1]	dCL/ daggl [1]
[Cl][Pt-2]([Cl])([Cl])([Cl])([Cl])[Cl].[NH4+].[NH4+] [(NH4)2[PtCl6], ammonium hexachloroplatinate (IV)]	5 × 10^-7	95% and 92% and 90%	–	–	–
O=[N+]([O-])[O-].[Ag+] [AgNO3]	180 × 10^-7	80% and 75% and 65%	–	–	–
O=S(=O)(O)[S-].O=S(=O)(O)[S-].[Au].[Na+].[Na+].[Na+] [AuH2Na3O6S4, aurothiosulfate]	50 × 10^-7	75% and 70% and 56%	–	–	–
O=[N+]([O-])[O-].O=[N+]([O-])[O-].[Cu+2] [Cu(NO3)2]	25 × 10^-7	85% and 82% and 65%	–	–	–
O=[N+]([O-])[O-].O=[N+]([O-])[O-].O=[N+]([O-])[O-].[Ga+3] [Ga(NO3)3, gallium trinitrate]	9.2 × 10^-7	90% and 82% and 75%	20 pg/dL	35 µg/dL	8
[Na+].[O]=[V](=[O])[O-] [NaVO3]	67 × 10^-7	70% and 55% and 40%	1 pg/dL	2.0 µg/dL	1
O=C([O-])[O-].O=C([O-])[O-].O=C([O-])[O-].[Tl+3].[Tl+3] [Tl2(CO3)3]	14.6 × 10^-7	95% and 92% and 89%	9 pg/dL	19 µg/dL	0.5
O=C([O-])[O-].[Tl+].[Tl+] [Tl2CO3]	13.1 × 10^-7	95% and 85% and 80%	12 pg/dL	21 µg/dL	2
O=[N+]([O-])[O-].O=[N+]([O-])[O-].[Zn+2] [Zn(NO3)2]	50 × 10^-7	–	–	–	–
N.N.[Cl][Pt][Cl] [cisplatin (cis-Pt(N H3)2 Cl2), cisplatin (cis-dichlorodiamminplatin) (II), reference compound]	7 × 10^-7	95% and 88% and 82%	2 pg/dL	3.5 µg/dL	5
